Patent US20240358862A1, “Synthesis Method and Application of a Near-infrared Probe GGa-ICG specific binding to PSCA” (Guangzhou Shiyun Biotechnology Co., Ltd, priority 2022, published 2024)

Legend:
[1] = Water solubility compared to ICG; type: physicochemical
PSCA [2] = molecular target: T1, PSCA (Homo sapiens, UniProt O43653); assay: Mass spectrometry analysis of the target protein of GGa-ICG; type: binding; parameters: Membrane proteins of PC-3 cells were extracted; endogenous in cells; host or cells: PC-3; settings: PC-3 membrane proteins, 35 kDa band
T1 sequence (O43653 12-83): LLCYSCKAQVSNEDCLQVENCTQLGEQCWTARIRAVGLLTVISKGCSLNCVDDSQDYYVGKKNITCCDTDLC
Protocol: PC-3 cells were washed three times with cold PBS buffer and lysed at 4° C. for 30 minutes in 5 mL of low-salt buffer [50 mM Tris-HCl (pH=7.5) containing protease inhibitor (0.1 mM PMSF complex)]. After centrifugation, the pellets were washed 3 times with 5 mL of low-salt buffer and then solubilized in 1.5 mL of lysis buffer (PBS containing 5 mM MgCl2 and 1% Triton X-100) at 4° C. for 30 minutes. The resulting supernatants were separately incubated with beads, ssDNA-ICG, or GGa-ICG at 4° C. for 1 hour. Protein-ssDNA-ICG or protein-GGa-ICG complexes were then captured by incubating them with 2 mg (200 μL) of streptavidin beads at 4° C. for 45 minutes. After centrifugation, the captured proteins were heated and eluted in 30 μL of loading buffer and then analyzed by SDS-PAGE gel and Coomassie blue staining. The protein bands showing significant differences in aptamer purification among different groups were subjected to in situ digestion and analyzed by LC-MS/MS.
Based on the above results, total membrane proteins were extracted from PC-3 cells and incubated with biotinylated GGa-ICG or ssDNA-ICG separately. Then, the binding complex was separated using streptavidin-coated magnetic beads and analyzed by SDS-PAGE gel. A characteristic protein band with a relative molecular weight of 35 kDa was found in the GGa-ICG column, which was digested and analyzed by LC-MS/MS QSTAR.

PSCA [3] = molecular target: T1, PSCA; assay: In vivo blocking of GGa-ICG by PSCA antibodies; parameters: endogenous in cells; species or system nude mice; settings: 1 mg PSCA antibody pre-injected, GGa-ICG 12 hours later
Protocol: 1 mg of PSCA antibody was pre-injected into nude mice, followed by injection of GGa-ICG 12 hours later, and live imaging was performed to observe the phenomenon of GGa-ICG binding.

PC-3 cells = assay: Endocytosis experiment; type: cell-based, human; settings: 37° C. vs 4° C., trypsin wash
Protocol: PC-3 cells were incubated with 200 nM GGa-ICG or ssDNA-ICG in 200 μL binding buffer at 37° C. for 10 minutes to observe cell membrane binding. After 2 hours of incubation, the cells were treated with 0.25% trypsin or 0.1 mg/mL proteinase K at 37° C. for 10 minutes to observe internal binding.
For inhibition of endocytosis, PC-3 cells were incubated with 200 nM GGa-ICG or ssDNA-ICG in 200 μL binding buffer at 4° C. for 2 hours to observe cell membrane binding. After 4 hours of incubation, the cells were treated with 0.25% trypsin or 0.1 mg/mL proteinase K at 37° C. for 10 minutes to observe internal binding.

[4] = Fluorescence depth detection (tissue penetration depth); type: physicochemical; settings: excited at 780 nm, signals detected after 5 minutes
Protocol: The tissue penetration depth of ICG, GGa-ICG, and ssDNA-ICG was detected using a fluorescence spectrometer at depths of 1, 2, 3, 4, and 5 mm. Fluorescence was excited at a wavelength of 780 nm and fluorescence signals were detected after 5 minutes to compare signal-to-noise ratios and observe the fluorescence signal penetration depth.

[5] = system: prostate cancer cell lines; assay: Cell binding by fluorescence microscope / flow cytometry; type: cell-based, human; settings: 200 nM probe
Protocol: Therefore, 200 nM of GGa-ICG and ssDNA-ICG were used to confirm their specific binding. The method is as follows: • a. The human prostate cancer cell lines PC-3, DU145, LNCaP, 22RV1, immortalized normal human prostate epithelial cell line RWPE1, and human cervical cancer cell line Hela, as well as MCF7 cells obtained from the American Type Culture Collection (ATCC), were used in this study. All cell lines were cultured at 37° C. and 5% CO2 in a humidified environment. […]
After the cells reach a confluency of over 80%, they were passaged and grown for 24-48 hours until they reached a confluency of over 50%. They were then washed once with PBS (without Ca and Mg ions), twice with cold washing buffer, and incubated at room temperature (4° C. for the internalization inhibition group) for 30 minutes with the sample buffer containing near-infrared fluorescence probes GGa-ICG, ssDNA-ICG, and ICG to a final concentration of 200 nM (or as specified). The cells were observed under a fluorescence microscope or analyzed by flow cytometry after digestion with trypsin without EDTA. […]

Substance: GGa-ICG: near-infrared probe: PSCA-binding nucleic acid aptamer GGa linked at 3′ to an ICG derivative dye (DNA TGCCACTACAGCTGGTTCGGTTTGGTGACTTCGTTCTTCGTTGTGGT; 3'-ICG dye, further chemistry not given here)
- water solubility compared to existing ICG [1]: improved
- target protein hit list by LC-MS/MS (PSCA [2]): PSCA ranking first
- blocking of tumor visualization by PSCA antibody (PSCA [3]): Completely Blocked
- mode of cell entry (PC-3 cells): enters cells through endocytosis
- penetration depth [4]: ~6 mm
- binding affinity of PC3, VCap and LNCap cell lines relative to DU-145, 22RV1 cells [5]: stronger
- specific binding to prostate cancer cell lines [5]: could specifically bind
